Measurements published in ChEMBL document CHEMBL5154935, “Design, Synthesis, and Biological Evaluation of Novel Evodiamine Derivatives as Potential Antihepatocellular Carcinoma Agents” (J Med Chem, 2022).
pIC50: −log10 of the molar value. Active and inactive are the calls of the source. No cut-off for these calls is given here.

Experiments:
[1] = tested on: SK-HEP1; test: Induction of cell cycle arrest in human SK-Hep1 cells assessed as accumulation at S phase at 80 nM treated for 24 hrs by PI staining based flow cytometry (reference value: 24.98 %); assay type: functional
[2] = tested on: Huh-7; test: Induction of apoptosis in human Huh-7 cells assessed as late apoptotic cells at 80 nM incubated for 24 hrs by annexin V-FITC/PI staining flow cytometry (reference value: 1.33 %); assay type: functional
[3] = tested on: HepG2; test: Antiproliferative activity against human HepG2 cells treated for 72 hrs by MTT assay; assay type: functional, cell-based; conditions: HepG2, 72 h
[4] = tested on: SK-HEP1; test: Induction of apoptosis in human SK-Hep1 cells assessed as late apoptotic cells at 80 nM incubated for 24 hrs by annexin V-FITC/PI staining flow cytometry (reference value: 1.13 %); assay type: functional
[5] = tested on: Huh-7; test: Induction of apoptosis in human Huh-7 cells assessed as viable cells at 80 nM incubated for 24 hrs by annexin V-FITC/PI staining flow cytometry (reference value: 97.3 %); assay type: functional; conditions: read-out: Activity
[6] = tested on: Huh-7; test: Antitumor activity against human Huh-7 cells xenografted in BALB/c mouse assessed as reduction in neo-vascularisation at 10 mg/kg, ip qd for 11 days and measured after 12 days by hematoxylin and eosin staining based assay; assay type: functional, organism-based; conditions: time 12.0 day
[7] = tested on: SK-HEP1; test: Induction of cell cycle arrest in human SK-Hep1 cells assessed as accumulation at G2 phase at 80 nM treated for 24 hrs by PI staining based flow cytometry (reference value: 16.55 %); assay type: functional
[8] = Induction of apoptosis in rat HSC-T6 cells assessed as necrotic cells at 80 nM pretreated with TGFbeta-1 for 1 day followed by compound addition and measured after 24 hrs by flow cytometry (reference value: 0.56 %); assay type: functional
[9] = tested on: SK-HEP1; test: Induction of apoptosis in human SK-Hep1 cells assessed as early apoptotic cells at 80 nM incubated for 24 hrs by annexin V-FITC/PI staining flow cytometry (reference value: 0.30 %); assay type: functional
[10] = Toxicity in BALB/c mouse xenografted with human Huh-7 cells assessed as histopathological change in lung at 10 mg/kg, ip qd for 11 days and measured after 12 days by hematoxylin and eosin staining based assay; assay type: organism-based; conditions: in vivo, 288 h, time 12 day
[11] = tested on: Huh-7; test: Antiproliferative activity against human Huh-7 cells treated for 72 hrs by MTT assay; assay type: functional, cell-based; conditions: Huh-7, 72 h
[12] = Induction of apoptosis in rat HSC-T6 cells assessed as viable cells at 80 nM pretreated with TGFbeta-1 for 1 day followed by compound addition and measured after 24 hrs by flow cytometry (reference value: 97.5 %); assay type: functional; conditions: read-out: Activity
[13] = tested on: Huh-7; test: Induction of cell cycle arrest in human Huh-7 cells assessed as accumulation at G1 phase at 80 nM treated for 24 hrs by PI staining based flow cytometry (reference value: 60.77 %); assay type: functional
[14] = tested on: HSC-T6; test: Antiproliferative activity against TGF-beta-1-stimulated rat HSC-T6 cells assessed as suppression of cell proliferation at 6.67 to 60 uM preincubated with TGFbeta-1 for 1 day followed by compound addition and measured after 48 hrs; assay type: functional, cell-based; conditions: dose 6.67-60 µM
[15] = tested on: SK-HEP1; test: Induction of apoptosis in human SK-Hep1 cells assessed as viable cells at 80 nM incubated for 24 hrs by annexin V-FITC/PI staining flow cytometry (reference value: 97.8 %); assay type: functional; conditions: read-out: Activity
[16] = tested on: SK-HEP1; test: Induction of apoptosis in human SK-Hep1 cells assessed as necrotic cells at 80 nM incubated for 24 hrs by annexin V-FITC/PI staining flow cytometry (reference value: 0.73 %); assay type: functional
[17] = tested on: SK-HEP1; test: Antiproliferative activity against human SK-HEP1 cells treated for 72 hrs by MTT assay; assay type: functional, cell-based; conditions: SK-HEP1, 72 h
[18] = tested on: Huh-7; test: Induction of apoptosis in human Huh-7 cells assessed as early apoptotic cells at 80 nM incubated for 24 hrs by annexin V-FITC/PI staining flow cytometry (reference value: 0.33 %); assay type: functional
[19] = tested on: Huh-7; test: Antitumor activity against human Huh-7 cells xenografted in BALB/c mouse assessed as tumor growth inhibition at 10 mg/kg, ip qd for 11 days and measured every 2 days relative to control; assay type: functional; conditions: Huh-7, 264 h, time 11 day, read-out: TGI
[20] = Toxicity in BALB/c mouse xenografted with human Huh-7 cells assessed as histopathological change in liver at 10 mg/kg, ip qd for 11 days and measured after 12 days by hematoxylin and eosin staining based assay; assay type: organism-based; conditions: in vivo, 288 h, time 12 day
[21] = tested on: Huh-7; test: Induction of apoptosis in human Huh-7 cells assessed as necrotic cells at 80 nM incubated for 24 hrs by annexin V-FITC/PI staining flow cytometry (reference value: 1.08 %); assay type: functional
[22] = tested on: HCCLM9; test: Antiproliferative activity against human HCCLM9 cells treated for 72 hrs by MTT assay; assay type: functional, cell-based; conditions: HCCLM9, 72 h
[23] = Toxicity in BALB/c mouse xenografted with human Huh-7 cells assessed as histopathological change in kidney at 10 mg/kg, ip qd for 11 days and measured after 12 days by hematoxylin and eosin staining based assay; assay type: organism-based; conditions: in vivo, 288 h, time 12 day
[24] = Antiproliferative activity against human L02 cells treated for 72 hrs by MTT assay; assay type: toxicity, cell-based
[25] = tested on: SK-HEP1; test: Induction of cell cycle arrest in human SK-Hep1 cells assessed as accumulation at G1 phase at 80 nM treated for 24 hrs by PI staining based flow cytometry (reference value: 58.47 %); assay type: functional
[26] = tested on: Huh-7; test: Induction of cell cycle arrest in human Huh-7 cells assessed as accumulation at S phase at 80 nM treated for 24 hrs by PI staining based flow cytometry (reference value: 23.33 %); assay type: functional
[27] = Toxicity in BALB/c mouse xenografted with human Huh-7 cells assessed as histopathological change in spleen at 10 mg/kg, ip qd for 11 days and measured after 12 days by hematoxylin and eosin staining based assay; assay type: organism-based; conditions: in vivo, 288 h, time 12 day
[28] = Toxicity in BALB/c mouse xenografted with human Huh-7 cells assessed as histopathological change in heart at 10 mg/kg, ip qd for 11 days and measured after 12 days by hematoxylin and eosin staining based assay; assay type: organism-based; conditions: in vivo, 288 h, time 12 day
[29] = Induction of apoptosis in rat HSC-T6 cells assessed as late apoptotic cells at 80 nM pretreated with TGFbeta-1 for 1 day followed by compound addition and measured after 24 hrs by flow cytometry (reference value: 1.76 %); assay type: functional
[30] = Induction of apoptosis in rat HSC-T6 cells assessed as early apoptotic cells at 80 nM pretreated with TGFbeta-1 for 1 day followed by compound addition and measured after 24 hrs by flow cytometry (reference value: 0.17 %); assay type: functional
[31] = tested on: SMMC-7721; test: Antiproliferative activity against human SMMC-7721 cells treated for 72 hrs by MTT assay; assay type: functional, cell-based; conditions: SMMC-7721, 72 h
[32] = tested on: Huh-7; test: Induction of cell cycle arrest in human Huh-7 cells assessed as accumulation at G2 phase at 80 nM treated for 24 hrs by PI staining based flow cytometry (reference value: 15.90 %); assay type: functional
[33] = molecular target: DNA topoisomerase 2-alpha (Homo sapiens) (UniProt P11388); test: Inhibition of human Top2-alpha expressed in baculovirus assessed as inhibition of relaxation of supercoiled pBR322 plasmid DNA at 100 uM incubated for 30 mins in presence of ATP by ethidium bromide staining based agarose gel electrophoresis analysis relative to control
Sequence of DNA topoisomerase 2-alpha (Homo sapiens) (P11388 whole entry): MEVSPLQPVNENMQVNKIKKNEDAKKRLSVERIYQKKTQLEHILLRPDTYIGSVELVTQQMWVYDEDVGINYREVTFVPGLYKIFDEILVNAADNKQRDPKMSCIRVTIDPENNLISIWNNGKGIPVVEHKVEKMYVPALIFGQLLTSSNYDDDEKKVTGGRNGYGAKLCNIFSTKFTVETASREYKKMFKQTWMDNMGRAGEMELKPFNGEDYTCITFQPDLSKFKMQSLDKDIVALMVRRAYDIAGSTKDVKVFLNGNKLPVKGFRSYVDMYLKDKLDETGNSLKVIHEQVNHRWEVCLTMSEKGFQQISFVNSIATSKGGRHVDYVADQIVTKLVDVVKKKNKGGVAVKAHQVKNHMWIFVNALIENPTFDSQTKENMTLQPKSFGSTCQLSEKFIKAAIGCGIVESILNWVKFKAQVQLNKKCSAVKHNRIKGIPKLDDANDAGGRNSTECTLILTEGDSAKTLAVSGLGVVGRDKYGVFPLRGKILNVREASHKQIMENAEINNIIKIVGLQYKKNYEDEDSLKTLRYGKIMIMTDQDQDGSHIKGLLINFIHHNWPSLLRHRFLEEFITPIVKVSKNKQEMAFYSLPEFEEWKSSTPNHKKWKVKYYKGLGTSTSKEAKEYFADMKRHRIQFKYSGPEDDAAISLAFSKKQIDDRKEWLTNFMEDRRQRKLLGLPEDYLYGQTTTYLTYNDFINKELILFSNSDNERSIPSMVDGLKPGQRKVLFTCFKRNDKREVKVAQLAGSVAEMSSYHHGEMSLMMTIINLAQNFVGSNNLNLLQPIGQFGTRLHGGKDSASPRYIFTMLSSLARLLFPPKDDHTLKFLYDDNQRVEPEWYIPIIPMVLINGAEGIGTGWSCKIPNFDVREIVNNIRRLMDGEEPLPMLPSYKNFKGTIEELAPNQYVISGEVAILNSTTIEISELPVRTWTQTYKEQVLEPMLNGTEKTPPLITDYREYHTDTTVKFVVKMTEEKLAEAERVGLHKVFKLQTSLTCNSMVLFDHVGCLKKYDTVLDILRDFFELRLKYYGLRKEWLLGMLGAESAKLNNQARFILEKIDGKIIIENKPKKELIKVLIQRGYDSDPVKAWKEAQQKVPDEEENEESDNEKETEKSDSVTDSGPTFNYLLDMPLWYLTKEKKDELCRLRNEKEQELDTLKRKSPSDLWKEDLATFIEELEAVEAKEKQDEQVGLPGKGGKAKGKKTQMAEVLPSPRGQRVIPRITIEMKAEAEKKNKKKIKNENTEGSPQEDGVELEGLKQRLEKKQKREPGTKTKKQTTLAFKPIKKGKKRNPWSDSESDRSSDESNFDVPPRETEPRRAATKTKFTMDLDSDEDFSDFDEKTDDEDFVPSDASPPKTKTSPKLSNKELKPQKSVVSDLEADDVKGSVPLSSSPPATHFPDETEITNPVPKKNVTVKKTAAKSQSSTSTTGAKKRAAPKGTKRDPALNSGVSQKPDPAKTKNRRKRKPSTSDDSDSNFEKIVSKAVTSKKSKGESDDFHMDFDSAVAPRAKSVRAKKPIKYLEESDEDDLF

[34] = molecular target: T1, DNA topoisomerase 1 (Homo sapiens) (UniProt P11387); test: Inhibition of Top1 (unknown origin) assessed as inhibition of relaxation of supercoiled pBR322 plasmid DNA at 50 uM incubated for 25 mins by ethidium bromide staining based agarose gel electrophoresis analysis relative to control
T1 sequence (whole entry): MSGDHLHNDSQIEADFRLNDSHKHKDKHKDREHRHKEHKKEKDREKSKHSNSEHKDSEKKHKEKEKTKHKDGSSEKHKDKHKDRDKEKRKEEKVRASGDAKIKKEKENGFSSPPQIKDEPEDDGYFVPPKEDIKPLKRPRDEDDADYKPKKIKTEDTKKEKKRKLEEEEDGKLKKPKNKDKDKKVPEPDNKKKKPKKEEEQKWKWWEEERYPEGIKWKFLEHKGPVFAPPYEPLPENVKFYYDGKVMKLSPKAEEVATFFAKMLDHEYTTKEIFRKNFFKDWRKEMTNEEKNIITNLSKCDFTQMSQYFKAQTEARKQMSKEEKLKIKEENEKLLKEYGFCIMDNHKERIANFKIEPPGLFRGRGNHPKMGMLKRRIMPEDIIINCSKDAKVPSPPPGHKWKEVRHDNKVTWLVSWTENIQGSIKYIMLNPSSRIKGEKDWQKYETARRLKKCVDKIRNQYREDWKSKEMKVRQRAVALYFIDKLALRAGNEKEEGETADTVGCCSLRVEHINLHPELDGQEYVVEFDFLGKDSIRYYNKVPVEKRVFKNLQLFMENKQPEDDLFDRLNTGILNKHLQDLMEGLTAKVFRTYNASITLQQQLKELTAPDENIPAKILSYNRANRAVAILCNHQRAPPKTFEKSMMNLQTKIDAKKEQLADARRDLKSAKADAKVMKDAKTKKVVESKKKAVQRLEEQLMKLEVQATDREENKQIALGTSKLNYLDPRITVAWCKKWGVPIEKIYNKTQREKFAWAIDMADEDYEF

[35] = Toxicity in BALB/c mouse xenografted with human Huh-7 cells assessed as reduction in WBC levels at 10 mg/kg, ip qd for 11 days and measured on day 11; assay type: organism-based; conditions: in vivo, 264 h, time 11 day
[36] = molecular target: T1, DNA topoisomerase 1 (Homo sapiens); test: Inhibition of Top1 (unknown origin) assessed as inhibition of relaxation of supercoiled pBR322 plasmid DNA at 12.5 uM incubated for 25 mins by ethidium bromide staining based agarose gel electrophoresis analysis relative to control

SMILES	Activity [1] [%]	Activity [2] [%]	pIC50 [3]	Activity [4] [%]	viability at 0.08 µM [5] [%]	Activity [7] [%]	Activity [8] [%]	Activity [9] [%]	pIC50 [11]	viability at 0.08 µM [12] [%]	Activity [13] [%]	viability at 0.08 µM [15] [%]	Activity [16] [%]	pIC50 [17]	Activity [18] [%]	Activity [21] [%]	pIC50 [22]	IC50 at 72 h [24] [nM]	Activity [25] [%]	Activity [26] [%]	further results
CNC(=O)c1cc(Oc2ccc(NC(=O)Nc3ccc(Cl)c(C(F)(F)F)c3)cc2)ccn1 [SORAFENIB]	34.1	3.94	5.68	3.5	94.6	5.43	0.85	1.01	5.59	91.5	53	94.1	1.32	5.70	0.23	1.18	5.50	5980	60.47	37.84	Activity [6]: Active; Activity [10]: Non-Toxic; Activity [14]: Active; inhibition in vivo at 10 mg/kg [19]: 46.3%; Activity [20]: Non-Toxic; Activity [23]: Non-Toxic; Activity [27]: Non-Toxic; Activity [28]: Non-Toxic; Activity [29]: 7.47%; Activity [30]: 0.16%; pIC50 [31]: 5.63; Activity [32]: 9.16%
CN1c2ccccc2C(=O)N2CCc3c([nH]c4ccccc34)C21 (stereo not given)	36	5.83	5.57	2.79	92	3.57	0.9	0.27	5.66	94.4	60.65	85	1.01	5.53	0.57	1.64	5.03	3950	60.43	23.42	inhibition [33]: 48%; inhibition [34]: 63.4%; Activity [35]: Toxic; inhibition [36]: 3.67%; Activity [29]: 4.44%; Activity [30]: 0.27%; pIC50 [31]: 5.52; Activity [32]: 15.93%
